# Source: article PMC3483286, “Functional characterization and evolution of PTH/PTHrP receptors: insights from the chicken” (BMC Evolutionary Biology, 2012)
# Entries after “also recorded” stand apart in the source; their conditions may differ. Where a SMILES comes first, the peptide text is derived from it.
# Columns and labels:
# chicken PTH3R [1] = molecular target: T1, chicken PTH3R (Gallus gallus, UniProt G8YY06); assay: cAMP accumulation in HEK293 cells stably transfected with chicken PTH3R (radioimmunoassay); type: cell-based; details: for stimulation of PTH3R cAMP accumulation, comparison in words: chicken 1–34 peptides, 0.1 nM to 100 nM; for Emax (maximal cAMP production, PTH3R): mean ± SEM, 3 experiments in triplicate, above basal levels, * (PTH-L) p < 0.05 compared to other peptides
# T1 sequence (G8YY06 1-530): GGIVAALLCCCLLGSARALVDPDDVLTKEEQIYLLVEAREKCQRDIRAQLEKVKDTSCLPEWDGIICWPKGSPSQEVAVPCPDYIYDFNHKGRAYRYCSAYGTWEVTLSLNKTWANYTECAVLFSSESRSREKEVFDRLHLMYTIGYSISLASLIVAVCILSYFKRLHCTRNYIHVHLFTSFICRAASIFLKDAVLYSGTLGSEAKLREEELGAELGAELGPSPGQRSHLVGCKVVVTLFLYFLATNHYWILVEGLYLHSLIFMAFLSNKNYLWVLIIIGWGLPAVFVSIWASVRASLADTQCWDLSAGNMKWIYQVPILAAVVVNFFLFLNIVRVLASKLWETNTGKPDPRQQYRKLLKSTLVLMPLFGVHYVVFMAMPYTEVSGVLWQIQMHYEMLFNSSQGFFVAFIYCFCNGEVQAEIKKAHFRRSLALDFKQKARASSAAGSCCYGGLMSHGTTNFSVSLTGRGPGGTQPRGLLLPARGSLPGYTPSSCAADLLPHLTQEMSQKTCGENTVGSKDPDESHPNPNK
# Protocol: (§1) HEK293 cells were maintained in complete Dulbecco’s modified Eagle’s medium (DMEM, Sigma, Spain) with 4.5 g/L glucose, 110 mg/L sodium pyruvate and L-glutamine supplemented with 10% sterile foetal bovine serum and 0.1% penicillin: streptomycin antibiotic mixture (10.000 U:10 mg/ml, Sigma) in a humid 5% CO2 incubator (Sanyo) at 37°C. On the day prior to transfection, 2–3 x10^5 cells were seeded on 6 well-plates (Starsted, Portugal). Linearized constructs (1 μg) and Fugene 6 (Roche, Germany) cell transfection reagent were used to transfect cells according to the manufactures protocol. The transfection complex was incubated for 40 min at room temperature before adding to the cells which were left to grown for 72 hours with daily changes of complete medium. Selection of the stably transfected clones was performed with complete medium supplemented with 800 μg/ml of Geneticin (G418 sulphate, GibcoBRL) and 250 μg/ml sterile filtered 1:100 amphotericin B solution (Sigma, Spain). Cell recovery was monitored daily by constant changes of antibiotic selective medium and the success of gene integration and expression was confirmed by RT-PCR with receptor specific primers.
# (§2) The capacity of chicken (1–34) PTH-family peptides to activate the stably transfected PTH1R and PTH3R cell lines was analysed by measuring intracellular cAMP production. Cell line bearing chicken receptors PTH1R and PTH3R were assayed in triplicate in the same assay in 96 well plates (Starstedt). Three independent experiments were performed. Cells were incubated at 37°C in a CO2 incubator and two days prior to the experiments, 2–3 x 10^5 cells were plated and peptide assays were carried out by adding to the recombinant cells decreasing concentrations of test peptide: 100 nM to 0.1 nM of chicken PTH(1–34), PTHrP(1–34) and PTH-L(1–34) or 100 nM of human PTH(1–34) and human TIP39 (Sigma, Spain). Prior to peptide addition, cells were incubated for 40 min with 1 mM 3-isobutyl-1-methylxantine (IBMX, Sigma), which was replaced with fresh medium containing the test peptide in the presence of 1 mM IBMX for a further 40 min. Forskolin (10 μM, Sigma) was used as positive control. Negative control assays were carried out using non-transfected cells in the presence or absence of 100 nM of each peptide. At the end of the assays, cells were washed, ressuspended in 100 μl of 1 x PBS/0.5 M EDTA and immediately frozen at −80°C to promote cell lysis for later quantification of intracellular cAMP production.
# (§3) For quantification of intracellular cAMP, cells were lysed using 3 consecutive thaw (42°C)/freeze (−80°C) cycles and the supernatant and cell debris were sonicated for 20 sec on ice. Cells were boiled at 100°C for 10 min to denature proteins and the supernatant was collected after centrifugation for 10 min at 4°C and 19000 g. cAMP was quantified in duplicate by radioimmunoassay using the TRK432 kit (GE Healthcare, UK) following the manufacturer's instructions.
# (§4) The results are presented as the mean ± SEM of three independent experiments carried out in triplicate for cAMP experiments and two independent experiments carried out in quadruplicate for Ca^2+ experiments. Data was plotted as the output of cAMP or Ca^2+ at different peptide concentrations for each PTHR using SigmaPlot 9 (Systat, Inc., San Jose, CA). EC50 and confidence limits were calculated using a sigmoidal curve fitting feature within the Single Ligand Binding routine of the Pharmacology module of Sigmaplot. […] To improve curve fitting the maximum empirical stimulation achieved for each receptor was assumed to be at 100 nM for all assays and the curve fitted accordingly.
# chicken PTH1R [2] = molecular target: T2, chicken PTH1R (Gallus gallus, UniProt C7S302); assay: intracellular Ca^2+ accumulation in HEK293 cells transfected with chicken PTH1R (Fluo-4 NW); type: cell-based; details: HEK293, Fluo-4 NW; peptide 1 μM and 100 nM screen, decreasing concentrations
# T2 sequence (C7S302 1-538): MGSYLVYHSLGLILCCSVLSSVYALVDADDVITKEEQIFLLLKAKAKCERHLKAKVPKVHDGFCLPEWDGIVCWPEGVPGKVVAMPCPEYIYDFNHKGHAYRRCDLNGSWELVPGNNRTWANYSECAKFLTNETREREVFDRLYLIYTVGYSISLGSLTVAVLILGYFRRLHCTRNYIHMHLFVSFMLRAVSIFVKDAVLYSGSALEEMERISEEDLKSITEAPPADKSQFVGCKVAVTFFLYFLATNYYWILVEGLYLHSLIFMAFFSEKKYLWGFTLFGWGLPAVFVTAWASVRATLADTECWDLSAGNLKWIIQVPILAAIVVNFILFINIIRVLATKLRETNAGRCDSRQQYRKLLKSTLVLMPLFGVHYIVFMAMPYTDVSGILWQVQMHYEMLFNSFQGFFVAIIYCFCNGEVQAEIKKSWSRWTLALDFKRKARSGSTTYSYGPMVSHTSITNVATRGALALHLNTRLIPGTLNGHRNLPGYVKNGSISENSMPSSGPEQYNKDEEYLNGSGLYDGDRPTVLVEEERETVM
# Protocol: as §1, with “The transfection complex was incubated for 40 min at room temperature before adding to the cells which were left to grown for 72 hours with daily changes of complete medium. Selection of the stably transfected clones was performed with complete medium supplemented with 800 μg/ml of Geneticin (G418 sulphate, GibcoBRL) and 250 μg/ml sterile filtered 1:100 amphotericin B solution (Sigma, Spain).” left out
# (§5) Intracellular Ca^2+ (iCa^2+) release was measured using the Ca^2+ sensitive fluorescent dye Fluo-4 NW (Molecular Probes, Invitrogen) according to manufacturer’s instructions. […] Incubations were carried out with 100 μl of the different peptides concentrations (from 1 μM to 100 nM) and cell fluorescence was measured every 10 sec over 2 minutes after addition of reagent using a Synergy4 (Biotek, USA) plate reader. Carbachol (100 nM; Sigma, Spain) was used as a positive control for the assay and the background signal was determined by measuring fluorescence in wells containing non-transfected cells. […]
# chicken PTH1R [3] = molecular target: T2, chicken PTH1R; assay: cAMP accumulation in HEK293 cells stably transfected with chicken PTH1R (radioimmunoassay); type: cell-based; details: for Emax (maximal cAMP production, PTH1R): mean ± SEM, 3 experiments in triplicate, above basal levels, * (PTHrP) p < 0.05 compared to other peptides; for accumulation of cAMP with PTH1R, human peptide, in words: human peptides at 10 nM and 100 nM, single experiment in triplicate
# Protocol: as §1, §2, §3, §4
# chicken PTH3R [4] = molecular target: T1, chicken PTH3R; assay: intracellular Ca^2+ accumulation in HEK293 cells transfected with chicken PTH3R (Fluo-4 NW); type: cell-based; details: HEK293, Fluo-4 NW; 1 μM and 100 nM of each peptide
# Protocol: as §1, with “The transfection complex was incubated for 40 min at room temperature before adding to the cells which were left to grown for 72 hours with daily changes of complete medium. Selection of the stably transfected clones was performed with complete medium supplemented with 800 μg/ml of Geneticin (G418 sulphate, GibcoBRL) and 250 μg/ml sterile filtered 1:100 amphotericin B solution (Sigma, Spain).” left out
# as §5
# Zebrafish PTH1R = details: N-terminal peptides; ref [8],[10]; cited from earlier work
# Source text: Chicken PTHRs are activated by PTH-family peptides in a dose-dependent manner. […] Mammalian PTH1R is activated by both PTH and PTHrP which have similar potency and stimulate both cAMP and iCa^2+ production.
molecule,measurement,setting,value
CSCC[C@H](NC(=O)[C@H](CC(C)C)NC(=O)[C@H](CCC(N)=O)NC(=O)[C@H](CCSC)NC(=O)[C@H](CCC(=O)O)NC(=O)[C@H](CO)NC(=O)[C@@H](NC(=O)[C@@H](N)CO)C(C)C)C(=O)N[C@@H](Cc1c[nH]cn1)C(=O)N[C@@H](CC(N)=O)C(=O)N[C@@H](CC(C)C)C(=O)NCC(=O)N[C@@H](CCC(=O)O)C(=O)N[C@@H](Cc1c[nH]cn1)C(=O)N[C@@H](CCCNC(=N)N)C(=O)N[C@@H](Cc1c[nH]cn1)C(=O)N[C@H](C(=O)N[C@H](C(=O)N[C@@H](CCC(=O)O)C(=O)N[C@@H](CCCNC(=N)N)C(=O)N[C@@H](CCC(N)=O)C(=O)N[C@@H](CC(=O)O)C(=O)N[C@@H](Cc1c[nH]c2ccccc12)C(=O)N[C@@H](CC(C)C)C(=O)N[C@@H](CCC(N)=O)C(=O)N[C@@H](CCSC)C(=O)N[C@@H](CCCCN)C(=O)N[C@@H](CC(C)C)C(=O)N[C@@H](CCC(N)=O)C(=O)N[C@@H](CC(=O)O)C(=O)N[C@H](C(=O)N[C@@H](Cc1c[nH]cn1)C(=O)N[C@@H](CO)C(=O)N[C@@H](C)C(=O)O)C(C)C)C(C)C)[C@@H](C)O [PTH] (H-SVSEMQLMHNLGEHRHTVERQDWLQMKLQDVHSA-OH; N-terminus and C-terminus assumed),"stimulation of PTH3R cAMP accumulation, comparison in words",chicken PTH3R [1],Stimulation of PTH3R was highest for PTHrP and PTH
same,"Emax (maximal cAMP production, PTH3R)",chicken PTH3R [1],144.7 ± 20.02 pmol/well
same,"intracellular Ca^2+ accumulation with PTH1R, in words",chicken PTH1R [2],had no effect
same,"Emax (maximal cAMP production, PTH1R)",chicken PTH1R [3],6.03 ± 0.78 pmol/well
CC[C@H](C)[C@H](NC(=O)[C@H](CC(C)C)NC(=O)[C@H](CC(N)=O)NC(=O)[C@H](CCC(N)=O)NC(=O)[C@H](CC(C)C)NC(=O)[C@H](Cc1ccccc1)NC(=O)[C@@H](NC(=O)[C@H](CCCNC(=N)N)NC(=O)[C@H](CCCNC(=N)N)NC(=O)[C@H](CCCNC(=N)N)NC(=O)[C@H](CC(C)C)NC(=O)[C@H](CC(=O)O)NC(=O)[C@H](CCC(N)=O)NC(=O)[C@@H](NC(=O)[C@H](CO)NC(=O)[C@H](CCCCN)NC(=O)CNC(=O)[C@H](CCCCN)NC(=O)[C@H](CC(=O)O)NC(=O)[C@H](Cc1c[nH]cn1)NC(=O)[C@H](CC(C)C)NC(=O)[C@H](CC(C)C)NC(=O)[C@H](CCC(N)=O)NC(=O)[C@H](Cc1c[nH]cn1)NC(=O)[C@H](CCC(=O)O)NC(=O)[C@H](CO)NC(=O)[C@@H](NC(=O)[C@H](C)N)C(C)C)[C@@H](C)CC)[C@@H](C)CC)C(=O)N[C@@H](CCC(=O)O)C(=O)NCC(=O)N[C@H](C(=O)N[C@@H](CC(N)=O)C(=O)N[C@H](C(=O)N[C@@H](C)C(=O)O)[C@@H](C)O)C(C)C [PTHrP] (H-AVSEHQLLHDKGKSIQDLRRRIFLQNLIEGVNTA-OH; N-terminus and C-terminus assumed),"stimulation of PTH3R cAMP accumulation, comparison in words",chicken PTH3R [1],Stimulation of PTH3R was highest for PTHrP and PTH
same,"stimulation of PTH3R cAMP accumulation, comparison in words",chicken PTH3R [1]; listed as PTHrP(1–34),had overlapping potency with PTH(1–34) for the latter receptor
same,"Emax (maximal cAMP production, PTH3R)",chicken PTH3R [1],119.9 ± 11.76 pmol/well
same,"intracellular Ca^2+ accumulation with PTH1R, in words",chicken PTH1R [2],stimulated intracellular Ca^2+ accumulation on activation of PTH1R; also recorded: efficiently stimulated iCa^2+ accumulation with PTH1R
same,"stimulation of PTH1R cAMP accumulation, comparison in words","chicken PTH1R [3]; chicken 1–34 peptides, 0.1 nM to 100 nM",produced the highest stimulation of PTH1R (p < 0.05)
same,"Emax (maximal cAMP production, PTH1R)",chicken PTH1R [3],17.21 ± 1.84 * pmol/well
same,"release of intracellular Ca^2+ on PTH3R activation, in words",chicken PTH3R [4],not PTH3R
Human PTH: human PTH(1–34) [reference compound],"activation of zebrafish PTH1R, in words",Zebrafish PTH1R,activated similarly
same,"cAMP accumulation, human peptide on chicken PTH1R","chicken PTH1R [3]; 10^-7 M, mean ± SEM of a single experiment carried out in triplicate (Additional file 4)",21.4 ± 10 pmol/well
same,"accumulation of cAMP with PTH1R, human peptide, in words",chicken PTH1R [3],stimulated cAMP production with an apparently similar potency to chicken PTHrP
"Human TIP39: human TIP39 (Sigma, Spain), tuberoinfundibular peptide 39 [reference compound]","cAMP production with PTH3R, human peptide, in words","chicken PTH3R [1]; human peptides at 10 nM and 100 nM, single experiment in triplicate",only negligible cAMP production was obtained for PTH3R
same,"accumulation of cAMP with PTH1R, human peptide, in words",chicken PTH1R [3],failed to induce accumulation of cAMP with PTH1R
